Test results published in paper PMC9669016, “First-in-human phase Ia study of the PI3Kα inhibitor CYH33 in patients with solid tumors” (Nature Communications, 2022).

Assay: Clinical pharmacokinetics: plasma CYH33 and I27 by LC/MS/MS
Type: in vivo, human
Description: The PK characteristics of CYH33 and its active metabolite I27 were evaluated after single and multiple dose administrations. PK data were obtained from 37 patients from 7 dose cohorts: 1 mg (n = 1), 5 mg (n = 1), 10 mg (n = 2), 20 mg (n = 6), 30 mg (n = 12), 40 mg (n = 13), and 60 mg (n = 2). Intensive and sparse PK sampling was performed. Prior to initiating a continuous daily treatment cycle, the first 5 patients participated in a single dose PK treatment period with a 7-day washout in order to determine the terminal-phase half-life (t1/2) of CYH33 and its active metabolite I27. Based on the single dose PK data for CYH33 of the first 5 patients at doses of 1, 5, 10 and 20 mg, the PK and metabolic characteristics of CYH33 and I27 were evaluated. Combined with the pre-specified rules in the protocol and deliberation from the SMC, subsequent patients directly entered the continuous dose phase.
Blood samples for PK evaluation were collected at: (1) during the single dose phase: on day 1 pre-dose and 0.5, 1, 2, 4, 8, 12, 24, 36, 48, and 72 h post-dose; (2) during the continuous dose phase: C1D1/Cycle 1 Day 28 pre-dose, and 0.5, 1, 2, 3, 4, 6, 8, 12, and 24 h post-dose; and C1D8/Day 15 pre-dose. Plasma concentrations of CYH33 and I27 were analyzed using a liquid chromatography-tandem mass spectrometry (LC/MS/MS) assay (Shimadzu Corporation, LC-30AD) with a lower limit of quantification (LLOQ) of 2.585 ng/mL and 1.0 ng/mL for CYH33 and I27, respectively. […] Blood samples for measuring the FBG level were collected within 30 min before dosing on C1D1, C1D15, and on the first day of subsequent treatment cycles.

[1] = CYH33, Cycle 1 Day 1, 5 mg (n = 1)
[2] = CYH33, Cycle 1 Day 1, 10 mg (n = 2)
[3] = CYH33, Cycle 1 Day 1, 20 mg (n = 5)

What does the source list for `COC(=O)Nc1cc(C(F)(F)F)c(-c2nc(N3CCOCC3)c3cc(CN4CCN(S(C)(=O)=O)CC4)cn3n2)cn1` [CYH33, methyl (5-(6-((4-(methylsulfonyl)piperazin-1-yl)methyl)−4-morpholinopyrrolo[2,1-f][1,2,4]triazin-2-yl)−4-(trifluoromethyl)pyridin-2-yl)carbamate]?
CYH33 plasma concentration, mean (C1D1, 1 mg, 1 h): 4.6 ng/mL; CYH33 plasma concentration, mean (C1D1, 1 mg, 2 h): 3.8 ng/mL; CYH33 plasma concentration, mean (C1D1, 1 mg, 4 h): 2.9 ng/mL; CYH33 plasma concentration, mean (C1D1, 1 mg, 8 h): 1.8 ng/mL; CYH33 plasma concentration, mean (C1D1, 1 mg, 12 h): 0 ng/mL; CYH33 plasma concentration, mean (C1D1, 1 mg, 36 h): 0 ng/mL; CYH33 plasma concentration, mean (C1D1, 1 mg, 48 h): 0 ng/mL; CYH33 plasma concentration, mean (C1D1, 1 mg, 72 h): 0 ng/mL; CYH33 plasma concentration, mean (C1D1, 5 mg, 1 h): 18.1 ng/mL; CYH33 plasma concentration, mean (C1D1, 5 mg, 2 h): 24.6 ng/mL; CYH33 plasma concentration, mean (C1D1, 5 mg, 4 h): 19.5 ng/mL; CYH33 plasma concentration, mean (C1D1, 5 mg, 8 h): 11.8 ng/mL; CYH33 plasma concentration, mean (C1D1, 5 mg, 12 h): 9.7 ng/mL; CYH33 plasma concentration, mean (C1D1, 5 mg, 36 h): 3.8 ng/mL; CYH33 plasma concentration, mean (C1D1, 5 mg, 48 h): 2.5 ng/mL; CYH33 plasma concentration, mean (C1D1, 10 mg, 1 h): 30.2 ng/mL; CYH33 plasma concentration, mean (C1D1, 10 mg, 2 h): 35.3 ng/mL; CYH33 plasma concentration, mean (C1D1, 10 mg, 8 h): 30.2 ng/mL; CYH33 plasma concentration, mean (C1D1, 10 mg, 12 h): 23.9 ng/mL; CYH33 plasma concentration, mean (C1D1, 10 mg, 36 h): 9.3 ng/mL; CYH33 plasma concentration, mean (C1D1, 10 mg, 48 h): 6.8 ng/mL; CYH33 plasma concentration, mean (C1D1, 20 mg, 0.5 h, in ng/mL): 26.7325; CYH33 plasma concentration, mean (C1D1, 20 mg, 1 h, in ng/mL): 44.192; CYH33 plasma concentration, mean (C1D1, 20 mg, 2 h, in ng/mL): 54.18; CYH33 plasma concentration, mean (C1D1, 20 mg, 3 h, in ng/mL): 46.425; CYH33 plasma concentration, mean (C1D1, 20 mg, 6 h, in ng/mL): 32.9075; CYH33 plasma concentration, mean (C1D1, 20 mg, 8 h, in ng/mL): 36.04; CYH33 plasma concentration, mean (C1D1, 20 mg, 36 h): 23.6 ng/mL; CYH33 plasma concentration, mean (C1D1, 20 mg, 48 h): 15.8 ng/mL; CYH33 plasma concentration, mean (C1D1, 30 mg, 0.5 h, in ng/mL): 24.6458; CYH33 plasma concentration, mean (C1D1, 30 mg, 1 h, in ng/mL): 57.5417; CYH33 plasma concentration, mean (C1D1, 30 mg, 2 h, in ng/mL): 79.1167; CYH33 plasma concentration, mean (C1D1, 30 mg, 3 h, in ng/mL): 79.1917; CYH33 plasma concentration, mean (C1D1, 30 mg, 6 h, in ng/mL): 64.9583; CYH33 plasma concentration, mean (C1D1, 30 mg, 8 h, in ng/mL): 60.1583; CYH33 plasma concentration, mean (C1D1, 30 mg, 24 h, in ng/mL): 43.65; CYH33 plasma concentration, mean (C1D1, 30 mg, 48 h): 42.5 ng/mL; CYH33 plasma concentration, mean (C1D1, 40 mg, 1 h, in ng/mL): 78.4333; CYH33 plasma concentration, mean (C1D1, 40 mg, 2 h): 87 ng/mL; CYH33 plasma concentration, mean (C1D1, 40 mg, 3 h): 88.2 ng/mL; CYH33 plasma concentration, mean (C1D1, 40 mg, 4 h, in ng/mL): 78.0667; CYH33 plasma concentration, mean (C1D1, 40 mg, 6 h, in ng/mL): 62.5333; CYH33 plasma concentration, mean (C1D1, 40 mg, 8 h, in ng/mL): 57.6333; CYH33 plasma concentration, mean (C1D1, 40 mg, 12 h, in ng/mL): 47.8667; CYH33 plasma concentration, mean (C1D1, 40 mg, 48 h): 45.2 ng/mL; CYH33 plasma concentration, mean (C1D1, 60 mg, 1 h): 55.6 ng/mL; CYH33 plasma concentration, mean (C1D1, 60 mg, 2 h, in ng/mL): 86.475; CYH33 plasma concentration, mean (C1D1, 60 mg, 3 h, in ng/mL): 95.325; CYH33 plasma concentration, mean (C1D1, 60 mg, 4 h, in ng/mL): 109.05; CYH33 plasma concentration, mean (C1D1, 60 mg, 6 h, in ng/mL): 98.025; CYH33 plasma concentration, mean (C1D1, 60 mg, 8 h): 96.2 ng/mL; CYH33 plasma concentration, mean (C1D1, 60 mg, 12 h, in ng/mL): 78.575; CYH33 plasma concentration, mean (C1D1, 60 mg, 48 h): 61.4 ng/mL; CYH33 plasma concentration, mean (C1D28, 1 mg, 0.5 h): 2.38 ng/mL; CYH33 plasma concentration, mean (C1D28, 1 mg, 1 h): 4.57 ng/mL; CYH33 plasma concentration, mean (C1D28, 1 mg, 2 h): 4.43 ng/mL; CYH33 plasma concentration, mean (C1D28, 1 mg, 8 h): 2.84 ng/mL; CYH33 plasma concentration, mean (C1D28, 1 mg, 12 h): 1.9 ng/mL; CYH33 plasma concentration, mean (C1D28, 1 mg, 24 h): 0 ng/mL; CYH33 plasma concentration, mean (C1D28, 5 mg, 0.5 h): 48.6 ng/mL; CYH33 plasma concentration, mean (C1D28, 5 mg, 1 h): 56.2 ng/mL; CYH33 plasma concentration, mean (C1D28, 5 mg, 2 h): 43 ng/mL; CYH33 plasma concentration, mean (C1D28, 5 mg, 8 h): 23.5 ng/mL; CYH33 plasma concentration, mean (C1D28, 5 mg, 12 h): 20 ng/mL; CYH33 plasma concentration, mean (C1D28, 5 mg, 24 h): 15.1 ng/mL; CYH33 plasma concentration, mean (C1D28, 10 mg, 0.5 h): 49.9 ng/mL; CYH33 plasma concentration, mean (C1D28, 10 mg, 1 h): 61.4 ng/mL; CYH33 plasma concentration, mean (C1D28, 10 mg, 2 h): 77.5 ng/mL; CYH33 plasma concentration, mean (C1D28, 10 mg, 8 h): 55.7 ng/mL; CYH33 plasma concentration, mean (C1D28, 10 mg, 12 h): 47.9 ng/mL; CYH33 plasma concentration, mean (C1D28, 10 mg, 24 h): 35.4 ng/mL; CYH33 plasma concentration, mean (C1D28, 20 mg, 0.5 h, in ng/mL): 110.84; CYH33 plasma concentration, mean (C1D28, 20 mg, 1 h): 134 ng/mL; CYH33 plasma concentration, mean (C1D28, 20 mg, 2 h, in ng/mL): 135.8; CYH33 plasma concentration, mean (C1D28, 20 mg, 6 h, in ng/mL): 117.175; CYH33 plasma concentration, mean (C1D28, 20 mg, 8 h, in ng/mL): 120.72; CYH33 plasma concentration, mean (C1D28, 20 mg, 12 h, in ng/mL): 106.84; CYH33 plasma concentration, mean (C1D28, 20 mg, 24 h, in ng/mL): 83.68; CYH33 plasma concentration, mean (C1D28, 30 mg, 0.5 h, in ng/mL): 149.367; CYH33 plasma concentration, mean (C1D28, 30 mg, 1 h, in ng/mL): 154.011; CYH33 plasma concentration, mean (C1D28, 30 mg, 2 h, in ng/mL): 172.178; CYH33 plasma concentration, mean (C1D28, 30 mg, 6 h, in ng/mL): 163.956; CYH33 plasma concentration, mean (C1D28, 30 mg, 8 h, in ng/mL): 162.122; CYH33 plasma concentration, mean (C1D28, 30 mg, 12 h, in ng/mL): 143.189; CYH33 plasma concentration, mean (C1D28, 40 mg, 0.5 h, in ng/mL): 167.057; CYH33 plasma concentration, mean (C1D28, 40 mg, 1 h, in ng/mL): 191.129; CYH33 plasma concentration, mean (C1D28, 40 mg, 2 h, in ng/mL): 206.714; CYH33 plasma concentration, mean (C1D28, 40 mg, 3 h, in ng/mL): 262.333; CYH33 plasma concentration, mean (C1D28, 40 mg, 6 h, in ng/mL): 245.333; CYH33 plasma concentration, mean (C1D28, 40 mg, 8 h, in ng/mL): 166.029; CYH33 plasma concentration, mean (C1D28, 40 mg, 12 h, in ng/mL): 158.629; CYH33 plasma concentration, mean (C1D28, 40 mg, 24 h, in ng/mL): 134.657; CYH33 plasma concentration, mean (C1D28, 60 mg, 0.5 h): 155 ng/mL; CYH33 plasma concentration, mean (C1D28, 60 mg, 1 h): 184 ng/mL; CYH33 plasma concentration, mean (C1D28, 60 mg, 2 h): 198 ng/mL; CYH33 plasma concentration, mean (C1D28, 60 mg, 3 h): 193 ng/mL; CYH33 plasma concentration, mean (C1D28, 60 mg, 6 h): 205 ng/mL; CYH33 plasma concentration, mean (C1D28, 60 mg, 8 h): 181 ng/mL; CYH33 plasma concentration, mean (C1D28, 60 mg, 12 h): 163 ng/mL; CYH33 plasma concentration, mean (C1D28, 60 mg, 24 h): 135 ng/mL; CL/F, mean (CV%) [1]: 11.6 L/h; V/F, mean (CV%) [1]: 322.8 L; CL/F, mean (CV%) [2]: 9.2 (11) L/h; V/F, mean (CV%) [2]: 263.2 (24) L; CL/F, mean (CV%) [3]: 9.1 L/h; V/F, mean (CV%) [3]: 274.2 L; CLss/F, mean (CYH33, Cycle 1 Day 28, 1 mg (n=1)): 19.4 L/h
